In the oligonucleotide strings, read from the 5' end, every base follows the letter of its sugar. An asterisk marks phosphorothioate; unmarked linkages are phosphodiester. Other units and linkages are bracketed, terminal groups are in braces. A string of capitals states the bases alone. e = 2'-O-(2-methoxyethyl) (MOE); [5mC] = 5-methylcytosine
Tests used:
MYC expression = MYC expression by qPCR after RNAiMax transfection of HEK293T cells; assay type: cell-based, human; settings: for MYC expression change, linker comparison: 400 to 3.125 nM
Method: HEK293T cells were seeded at 30k cells/well in a 96 well tissue culture vessel day before transfection. […] Transfected cells were allowed to recover and were harvested after 24 hours. MYC expression was measured by RNA level using qPCR analysis after transfection with each of the bi-functional molecule or control molecules. Cell samples for qPCR analysis were prepared by Cells to Ct 1 Step TaqMan Kit (ThermoFisher A25602) following manufractuer’s recommendations. qPCR assays were performed using Cells to Ct qPCR master mix, gene specific TaqMan probe (ThermoFisher), and Cells to Ct cell lysate. Relative levels of MYC were normalized to β-actin as a stably expressed control. MYC TaqMan probe: ThermoFisher Assay ID Hs00153408_ml; ACTB TaqMan probe: ThermoFisher Assay ID Hs01060665_g1. During qPCR amplification, FAM fluorescence intensity for each target gene was recorded by QuantStudio7 qPCR instrument (ThermoFisher Scientific) as a measurement of the amount of double-stranded DNA produced during each PCR cycle. Ct values for each gene in each sample were computed by the instrument software based on the amplification curves, and used to determine relative expression values for target and β-actin in each sample.

SYNGAP1 expression = SYNGAP1 expression by qPCR after transfection of HEK293T cells; assay type: cell-based, human; settings: 200 nM, 48 hours
Method: SYNGAP1 ASO1-JQ1 to SYNGAP1 ASO4-JQ1 were transfected to HEK293T cells at 200, and 67 nM with RNAiMax. SYNGAP1 ASO-JQ1:RNAiMax ratios in transfection are: 200 nM:0.6 ul, 67 nM:0.2 ul. Cells were harvested 48 hours after transfection and SYNGAP1 expression changes was monitored by qPCR. TaqMan probe used in the assay for quantitation: SYNGAP1: Assay ID Hs00405348_m1 (ThermoFisher), ACTB Assay ID Hs01060665_g1(ThermoFisher).

SCN1A expression = SCN1A expression by qPCR after transfection of SK-N-AS cells; assay type: cell-based, human; settings: 100 to 3.125 nM, 48 hours
Method: SCN1A-ASO1 shown in Table 5A was designed against the exonic region of SCN1A mRNA. SCN1A ASO1-Linker1-JQ1 was transfected to SK-N-AS cells at 100, 50, 25, 12.5, 6.25, and 3.125 nM with RNAiMax. SCN1A ASO1-JQ1:RNAiMax ratios in transfection were: 100 nM:0.3 ul, 50 nM and below:0.15 ul. Cells were harvested 48 hours after transfection and SCN1A expression changes were monitored by qPCR. TaqMan probe used in the assay for quantitation: SCN1A Hs00374696_ml (ThermoFisher), GAPDH Hs02786624_g1 (ThermoFisher).
SCN1A ASO1-Linker1-iBET762 was transfected to SK-N-AS cells at 100, 50, 25, 12.5, 6.25, and 3.125 nM with RNAiMax. SCN1A ASO1-iBET762:RNAiMax ratios in transfection are: 100 nM:0.3 ul, 50 nM and below:0.15 ul. Cells were harvested 48 hours after transfection and SCN1A expression changes were monitored by qPCR. TaqMan probe used in the assay for quantitation: SCN1A Hs00374696_m1 (ThermoFisher), GAPDH Hs02786624_g1 (ThermoFisher). […] SCN1A encodes for the alpha-1 subunit of the voltage-gated sodium channel (Na(V)1.1), and patients with SCN1A loss of function mutations suffers from Dravet syndrome, a neurological disorder.

MYC protein = assay: MYC protein, FRET based ELISA (Human c-Myc Cell-based kit) in HEK293T cells; settings: 200 nM, 24 hours
Method: PVT1 ASO1-JQ1 and control molecules were transfected to HEK293T cells at 400, 200, 100, and 50 nM with RNAiMax. PVT1 ASO1-JQ1:RNAiMax ratios in transfection are: 400 nM: 1.2 ul, 200 nM:0.6 ul, 100 nM:0.3 ul, 50 nM:0.15 ul. Cells were harvested 24 hours after transfection and MYC expression changes was monitored by qPCR and by enzyme-linked immunosorbent assay (ELISA). […] For a fluorescence resonance energy transfer (FRET) based ELISA assays, cell samples were prepared by Human c-Myc Cell-based kit (Cisbio # 63ADK053PEH) following manufractuer’s recommendation. MYC protein is detected in a sandwich assay using two specific antibodies, labeled with Europium Cryptate (donor) and with d2 (acceptor). FRET signal was read with Varioskan LUX Multimode Microplate Reader (ThermoFisher) with a 6 hr kinetic read.

[1] = tested on: BET family of bromodomain proteins; settings: cited from earlier work
[2] = HEK293T, 400, 133, 44, 15 nM, 24 hours

PVT1 ASO25-JQ1: PVT1 ASO25 (SEQ ID NO: 31) conjugated to JQ1 with linker 2 (TTATAGACTAGATTGGCCAG; conjugated to JQ1 via linker 2, modification pattern not given here)
MYC expression change (MYC expression; [2]): increased MYC expression level similar to PVT1 ASO1-JQ1

PVT1-ASO1-Linker1-JQ1: PVT1 ASO1 (SEQ ID NO: 7) conjugated to JQ1 with linker 1 (eG*eT*eA*eA*eG*eT*eG*eG*eA*eA*eT*eT*e[5mC]*e[5mC]*eA*eG*eT*eT*eG; JQ1 conjugated via linker 1, further chemistry not fully specified)
MYC expression change, linker comparison (MYC expression; HEK293T, 24 hours): both active and increased MYC expression to similar levels

SYNGAP1 ASO2-JQ1: SYNGAP1 ASO2 (SEQ ID NO: 48) conjugated to JQ1 using Linker 2 (ATCACCTCCTATAGCTCCT; 5' amino modified, conjugated to JQ1 via linker 2, further chemistry not given here)
increase in SYNGAP1 expression (SYNGAP1 expression): about 2 fold

PVT1-Scr4: JQ1 conjugate of partially scrambled PVT1 ASO1 sequence scr4 (SEQ ID NO: 66) (eG*eT*eA*eA*eG*eT*eG*eG*eA*eA*eT*eT*e[5mC]*e[5mC]*eA*eT*eT*eG*eG; JQ1 conjugate, further chemistry not fully specified)
MYC expression change (MYC expression; HEK293T, 100 nM, 24 hours): less impact on the activities

SCN1A ASO1-JQ1: SCN1A ASO1 (SEQ ID NO: 46), 5′ Azide-N modified LNA mixmer, conjugated to JQ1 with linker 1 (AGTAAGACTGGGGTTGTT; 5' azide, LNA mixmer, JQ1 via linker 1, chemistry not fully specified)
increase in SCN1A expression (SCN1A expression): about 2 fold

PVT1-Scr1: JQ1 conjugate of partially scrambled PVT1 ASO1 sequence scr1 (SEQ ID NO: 63) (eT*eG*eA*eA*eG*eT*eG*eG*eA*eA*eT*eT*e[5mC]*e[5mC]*eA*eG*eT*eT*eG; JQ1 conjugate, further chemistry not fully specified)
MYC expression change (MYC expression; HEK293T, 100 nM, 24 hours): less impact on the activities

PVT1 ASO1-JQ1: PVT1 ASO1 (SEQ ID NO: 7) conjugated to JQ1 with linker 2 (eG*eT*eA*eA*eG*eT*eG*eG*eA*eA*eT*eT*e[5mC]*e[5mC]*eA*eG*eT*eT*eG; JQ1 conjugated via linker 2, further chemistry not fully specified)
MYC response at top dose of titration (MYC expression; HEK293T, 200 nM, 24 hours): slight decrease of MYC response
MYC expression change upon dose titration (MYC expression; HEK293T, 200, 100, 50, 25, 12.5, 6.25, 3.125 nM, 24 hours): dose dependent response
MYC expression change (RNA transcripts) (MYC expression; HEK293T, 400, 200, 100, 50 nM, 24 hours): increase of MYC RNA transcripts
MYC expression change, linker comparison (MYC expression; HEK293T, 24 hours): both active and increased MYC expression to similar levels
increase in MYC expression (MYC expression; HEK293T, transfected at 400, 200, 100, 50 nM, harvested after 24 hours): about 4 fold
MYC protein level increase (MYC protein): about 2 fold

PVT1-Scr8: JQ1 conjugate of partially scrambled PVT1 ASO1 sequence scr8 (SEQ ID NO: 70) (eG*eT*eA*eA*eG*eT*eG*eG*eA*eA*eT*eT*e[5mC]*e[5mC]*eA*eT*eG*eG*eT; JQ1 conjugate, further chemistry not fully specified)
MYC expression change (MYC expression; HEK293T, 100 nM, 24 hours): less impact on the activities

PVT1 ASO24-JQ1: PVT1 ASO24 (SEQ ID NO: 30) conjugated to JQ1 with linker 2 (CATTGAAGGATCATGGTCAT; conjugated to JQ1 via linker 2, modification pattern not given here)
MYC expression change (MYC expression; [2]): increased MYC expression level similar to PVT1 ASO1-JQ1

(-)JQ1
weaker biochemical activity as compared to JQ1 [1]: > 100 x

Source: patent publication US20230332145A1, “BIFUNCTIONAL MOLECULES AND METHODS OF USING THEREOF” (Flagship Pioneering, Inc., priority 2020, published 2023)
